Assay results taken from patent US11142533B2, “Macrocycles for use in treating disease” (TURNING POINT THERAPEUTICS, INC., priority 2019, dated 2021).
Entries after “also recorded” stand apart in the source; their conditions may differ. One block for each compound: values may come before it.

Key:
[1] = biological target: T1, ALK (T1151M) (Homo sapiens, UniProt Q9UM73, T1151M); assay: Biochemical kinase assay (Reaction Biology); details: 10 μM ATP
T1 construct: purchased Reaction Biology Corporation (assay run there)

[2] = biological target: T2, ALK (L1198F/G1202R) (Homo sapiens, UniProt Q9UM73, G1202R/L1198F); assay: Biochemical kinase assay (Reaction Biology); details: 10 μM ATP
T2 construct: purchased Reaction Biology Corporation (contract assay)

[3] = biological target: T3, ALK (F1174C) (Homo sapiens, UniProt Q9UM73, F1174C); assay: Biochemical kinase assay (Reaction Biology); details: 10 μM ATP
T3 construct: purchased Reaction Biology Corporation (contract assay)

[4] = biological target: T4, ALK (R1275Q) (Homo sapiens, UniProt Q9UM73, R1275Q); assay: Biochemical kinase assay (Reaction Biology); details: 10 μM ATP
T4 construct: purchased Reaction Biology Corporation (contract assay)

[5] = biological target: T5, ALK (I1171N) (Homo sapiens, UniProt Q9UM73, I1171N); assay: Biochemical kinase assay (Reaction Biology); details: 10 μM ATP
T5 construct: purchased Reaction Biology Corporation (contract assay)

[6] = biological target: T6, ALK (L1196M) (Homo sapiens, UniProt Q9UM73, L1196M); assay: Biochemical kinase assay (Reaction Biology); details: 10 μM ATP
T6 construct: purchased Reaction Biology Corporation (contract assay)

[7] = biological target: T7, ALK (F1174S) (Homo sapiens, UniProt Q9UM73, F1174S); assay: Biochemical kinase assay (Reaction Biology); details: 10 μM ATP
T7 construct: purchased Reaction Biology Corporation (contract assay)

[8] = biological target: T8, ALK (E1210K) (Homo sapiens, UniProt Q9UM73, E1210K); assay: Biochemical kinase assay (Reaction Biology); details: 10 μM ATP
T8 construct: purchased Reaction Biology Corporation (contract assay)

[9] = biological target: T9, ALK (L1198F) (Homo sapiens, UniProt Q9UM73, L1198F); assay: Biochemical kinase assay (Reaction Biology); details: 10 μM ATP
T9 construct: purchased Reaction Biology Corporation (contract assay)

[10] = biological target: T10, ALK (F1174L) (Homo sapiens, UniProt Q9UM73, F1174L); assay: Biochemical kinase assay (Reaction Biology); details: 10 μM ATP
T10 construct: purchased Reaction Biology Corporation (contract assay)

[11] = biological target: T11, ALK (G1202R) (Homo sapiens, UniProt Q9UM73, G1202R); assay: Biochemical kinase assay (Reaction Biology); details: 10 μM ATP
T11 construct: purchased Reaction Biology Corporation (contract assay)

[12] = biological target: T12, ALK (E1210K/S1206C) (Homo sapiens, UniProt Q9UM73, E1210K/S1206C); assay: Biochemical kinase assay (Reaction Biology); details: 10 μM ATP
T12 construct: purchased Reaction Biology Corporation (contract assay)

[13] = biological target: T13, ALK (L1152R) (Homo sapiens, UniProt Q9UM73, L1152R); assay: Biochemical kinase assay (Reaction Biology); details: 10 μM ATP
T13 construct: purchased Reaction Biology Corporation (contract assay)

[14] = biological target: T14, ALK (F1245C) (Homo sapiens, UniProt Q9UM73, F1245C); assay: Biochemical kinase assay (Reaction Biology); details: 10 μM ATP
T14 construct: purchased Reaction Biology Corporation (contract assay)

[15] = biological target: T15, ALK (L1198F/L1196M) (Homo sapiens, UniProt Q9UM73, L1196M/L1198F); assay: Biochemical kinase assay (Reaction Biology); details: 10 μM ATP
T15 construct: purchased Reaction Biology Corporation (contract assay)

[16] = biological target: T16, ALK (E1210K/D1203N) (Homo sapiens, UniProt Q9UM73, D1203N/E1210K); assay: Biochemical kinase assay (Reaction Biology); details: 10 μM ATP
T16 construct: purchased Reaction Biology Corporation (contract assay)

[17] = biological target: T17, ALK (D1203N) (Homo sapiens, UniProt Q9UM73, D1203N); assay: Biochemical kinase assay (Reaction Biology); details: 10 μM ATP
T17 construct: purchased Reaction Biology Corporation (contract assay)

[18] = biological target: T18, ALK (S1206R) (Homo sapiens, UniProt Q9UM73, S1206R); assay: Biochemical kinase assay (Reaction Biology); details: 10 μM ATP
T18 construct: purchased Reaction Biology Corporation (contract assay)

[19] = biological target: T19, ALK (G1269A) (Homo sapiens, UniProt Q9UM73, G1269A); assay: Biochemical kinase assay (Reaction Biology); details: 10 μM ATP
T19 construct: purchased Reaction Biology Corporation (contract assay)

[20] = biological target: T20, ALK (Homo sapiens, UniProt Q9UM73); assay: Biochemical kinase assay (Reaction Biology); details: 10 μM ATP
T20 construct: purchased Reaction Biology Corporation (contract assay)

[21] = biological target: T21, ALK (L1198F/C1156Y) (Homo sapiens, UniProt Q9UM73, C1156Y/L1198F); assay: Biochemical kinase assay (Reaction Biology); details: 10 μM ATP
T21 construct: purchased Reaction Biology Corporation (contract assay)

[22] = biological target: T22, ALK fusion protein in Ba/F3 cell-derived xenograft tumors with the EML4-ALK L1196M/G1202R fusion (Homo sapiens, UniProt Q9UM73, G1202R/L1196M); assay: In vivo pharmacodynamic study, tumor immunoblotting; parameters: species or system mice; details: for ALK phosphorylation level compared to control: 0.6, 2, or 5 mg/kg
T22 construct: expressed in transfected cells; host or cells: Ba/F3 cells (lentiviral transduction), implanted subcutaneously in SCID/Beige mice; the other entry of the earlier key: EML4 (Q9HC35, Echinoderm microtubule-associated protein-like 4)
Description: Mice bearing xenograft tumors were humanely euthanized and tumors were resected and snap frozen in liquid nitrogen and stored at −80° C. Frozen tumor samples were processed at 4° C. in 1× Cell Lysis Buffer (Cell Signaling Technologies) to extract proteins. SDS loading samples were prepared by addition of 4×LDS Sample Buffer and 10× Reducing Reagent (Life Technologies, Inc) to protein lysate. Tumor SDS protein samples were processed by SDS-PAGE and immunoblotted with rabbit anti-phosphorylated ALK Y1282/1283, rabbit anti-phosphorylated ALK Y1604, rabbit anti-ALK and mouse anti-actin antibodies (Cell Signaling Technologies). The signals from immunoblot were detected by C-DiGit Blot Scanner from LI-COR and the signal intensity were quantified using the Image Studio Digit software (LI-COR).
As the control, the expression level of actin was not affected by Compound 1 treatment.

[23] = single oral dose 10 mg/kg, 2 hours post dose, tumor immunoblot, 10 mg/kg

IC50 [1]: 0.28 nM | IC50 [2]: 0.49 nM | IC50 [3]: 0.92 nM | IC50 [4]: 0.72 nM | IC50 [5]: 1.16 nM | IC50 [6]: 0.18 nM | IC50 [7]: 0.76 nM | IC50 [8]: 0.21 nM | IC50 [9]: 0.85 nM | IC50 [10]: 0.42 nM | IC50 [11]: 0.74 nM | IC50 [12]: 0.13 nM | IC50 [13]: 0.83 nM | IC50 [14]: 0.41 nM | IC50 [15]: 0.1 nM | IC50 [16]: 4 nM | IC50 [17]: 2.9 nM | IC50 [18]: 0.31 nM | IC50 [19]: 1.28 nM | IC50 [20]: 1.4 nM | IC50 [21]: 0.15 nM
Structure (SMILES): O=C1NCC2(CC2)COc2ccc(F)cc2CN2c3nc4c1cnn4cc3OC[C@H]2C(F)F [Compound 2, (16′S)-16′-(Difluoromethyl)-12′-fluoro-4′H,5′H,6′H,8′H,14′H,16′H,17′H-spiro[cyclopropane-1,7′-[1,19](metheno)[1,4]oxazino[3,4-j]pyrazolo[4,3-g][1,5,9,11]benzoxatriazacyclotetradecin]-4′-one]

ALK phosphorylation level compared to control ([22]; each dose, at 2 hours): significantly reduced | level of ALK fusion expression vs vehicle [22, 23]: reduction; also recorded: reduced
Structure (SMILES): CC1(C)COc2ccc(F)cc2CN2c3nc4c(cnn4cc3OC[C@H]2C(F)F)C(=O)N1 [Compound 1, (4S)-4-(Difluoromethyl)-8-fluoro-13,13-dimethyl-3,4,13,14-tetrahydro-6H-18,1-(metheno)[1,4]oxazino[3,4-i]pyrazolo[4,3-f][1,4,8,10]benzoxatriazacyclotridecin-15(12H)-one]
ALK phosphorylation level compared to control ([22]; at 12 hours): only showed reduction at 12 hours at the highest dose | level of phosphorylation of ALK fusions at Y1282/1283 vs vehicle [22, 23]: inhibition of phosphorylation; also recorded: reduced | level of phosphorylation of ALK fusions at Y1604 vs vehicle [22, 23]: inhibition of phosphorylation; also recorded: reduced
